Our source for the IC50 values is patent publication US20250059213A1, “LONP1 INHIBITORS, USES AND METHODS” (Pretzel Therapeutics, Inc., priority 2021, published 2025).

In general, IC50 refers to the point on the concentration scale where inhibition reaches its midpoint. Read a low IC50 as inhibition by little substance.

Chain of LONP1 (NM_004793.4) (P36776 68-959): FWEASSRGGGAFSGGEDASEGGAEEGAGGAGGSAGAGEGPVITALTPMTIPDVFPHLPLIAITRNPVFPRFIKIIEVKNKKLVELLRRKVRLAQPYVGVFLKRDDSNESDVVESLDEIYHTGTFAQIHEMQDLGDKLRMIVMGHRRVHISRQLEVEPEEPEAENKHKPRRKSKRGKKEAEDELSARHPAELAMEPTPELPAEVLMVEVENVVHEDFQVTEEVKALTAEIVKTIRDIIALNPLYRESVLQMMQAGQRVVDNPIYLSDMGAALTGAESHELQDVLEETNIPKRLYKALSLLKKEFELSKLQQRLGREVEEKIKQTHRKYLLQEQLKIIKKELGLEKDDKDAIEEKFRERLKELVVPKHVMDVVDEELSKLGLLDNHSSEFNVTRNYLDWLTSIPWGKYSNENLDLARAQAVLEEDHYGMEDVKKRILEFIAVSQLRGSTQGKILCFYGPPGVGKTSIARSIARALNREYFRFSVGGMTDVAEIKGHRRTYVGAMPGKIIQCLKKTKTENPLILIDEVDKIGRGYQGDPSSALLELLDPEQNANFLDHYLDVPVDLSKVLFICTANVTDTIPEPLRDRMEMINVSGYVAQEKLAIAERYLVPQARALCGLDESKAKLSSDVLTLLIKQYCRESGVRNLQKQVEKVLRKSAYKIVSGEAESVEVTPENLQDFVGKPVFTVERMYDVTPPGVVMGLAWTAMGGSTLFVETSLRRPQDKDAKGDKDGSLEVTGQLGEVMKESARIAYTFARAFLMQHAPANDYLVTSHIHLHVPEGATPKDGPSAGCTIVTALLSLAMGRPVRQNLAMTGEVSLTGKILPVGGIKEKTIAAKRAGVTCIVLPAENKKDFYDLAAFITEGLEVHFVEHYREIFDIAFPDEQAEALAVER

The target in this test is LONP1 (NM_004793.4) (Homo sapiens (Human), UniProt P36776). Briefly: LONP1 FRET-based protease activity assay (fluorogenic peptide substrate). The note with it: LONP1 15 nM, substrate 3 μM, 15 min preincubation, 1 hour at 37° C.; average of a minimum of two repeats. The format is biochemical. How it is done:
Inhibition of LONP1 protease activity by an inhibitor compound of the disclosure elicits a decrease in the fluorescent signal.
The LONP1-containing mix (10 μL) was incubated with the test compound for 15 min at 37° C. before adding the peptide-containing mix (5 μL). Solutions were dispensed using a small cassette-Multidrop Combi (Thermo Scientific).
Each value is based on an average of a minimum of two repeats.
The compound `O=C(N[C@H](CC(=O)N1CCOCC1)C(=O)NC(CCCc1ccccc1)B(O)O)C1CCCCC1` (stereo in doubt) [Compound 41, ((R)-1-((R)-2-(cyclohexanecarboxamido)-4-morpholino-4-oxobutanamido)-4-phenylbutyl)boronic acid] displayed an IC50 of under 50 nM.
`O=C(N[C@H](CC(=O)N1CCOCC1)C(=O)NC(CCCc1ccccc1)B(O)O)C1CCOCC1` (stereo in doubt) [Compound 42, ((R)-1-((R)-4-morpholino-4-oxo-2-(tetrahydro-2H-pyran-4-carboxamido)butanamido)-4-phenylbutyl)boronic acid]: the IC50 was under 50 nM.
Then `O=C(NC(CC(=O)N1CCOCC1)C(=O)N[C@@H](Cc1ccccc1)B(O)O)c1cnccn1` (stereo in doubt) [Compound 47, ((R)-1-((R)-4-morpholino-4-oxo-2-(pyrazine-2-carboxamido)butanamido)-2-phenylethyl)boronic acid], with over 5000 nM; and `O=C(C[C@@H](NC(=O)c1cnccn1)C(=O)N[C@@H](CCCc1ccccc1)B(O)O)c1ccccc1` [Compound 3, ((1R)-1-(4-oxo-4-phenyl-2-(pyrazine-2-carboxamido)butanamido)-4-phenylbutyl)boronic acid], with under 50 nM.
As to `CC(C)C[C@H](NC(=O)[C@@H](CC(=O)N1CCOCC1)NC(=O)c1cnccn1)B(O)O` [Compound 4, ((R)-3-methyl-1-((R)-4-morpholino-4-oxo-2-(pyrazine-2-carboxamido)butanamido)butyl)boronic acid], the concentration for half-maximal inhibition (IC50) was under 50 nM.
Next, `O=C(N[C@H](CC(=O)N1CCOCC1)C(=O)N[C@@H](CCc1ccccc1)B(O)O)c1cnccn1` [Compound 5, ((R)-1-((R)-4-morpholino-4-oxo-2-(pyrazine-2-carboxamido)butanamido)-3-phenylpropyl)boronic acid]: under 50 nM; `CCCC[C@H](NC(=O)[C@@H](CC(=O)N1CCOCC1)NC(=O)c1cnccn1)B(O)O` [Compound 6, ((R)-1-((R)-4-morpholino-4-oxo-2-(pyrazine-2-carboxamido)butanamido)pentyl)boronic acid]: under 50 nM; `Cc1nc(C)c(C(=O)N[C@H](CC(=O)N2CCOCC2)C(=O)N[C@@H](CC(C)C)B(O)O)o1` [Compound 7, ((R)-1-((R)-2-(2,4-dimethyloxazole-5-carboxamido)-4-morpholino-4-oxobutanamido)-3-methylbutyl)boronic acid]: under 50 nM.
Next, `CN(C)C(=O)C[C@@H](NC(=O)c1cnccn1)C(=O)N[C@@H](CCCc1ccccc1)B(O)O` [Compound 8, ((R)-1-((R)-4-(dimethylamino)-4-oxo-2-(pyrazine-2-carboxamido)butanamido)-4-phenylbutyl)boronic acid]: under 50 nM; `CCNC(=O)C[C@@H](NC(=O)c1cnccn1)C(=O)N[C@@H](CCCc1ccccc1)B(O)O` [Compound 9, ((R)-1-((R)-4-(ethylamino)-4-oxo-2-(pyrazine-2-carboxamido)butanamido)-4-phenylbutyl)boronic acid]: under 50 nM.
Next, `NC(=O)C[C@@H](NC(=O)c1cnccn1)C(=O)N[C@@H](CCCc1ccccc1)B(O)O` [Compound 10, ((R)-1-((R)-4-amino-4-oxo-2-(pyrazine-2-carboxamido)butanamido)-4-phenylbutyl)boronic acid]: under 50 nM.
As for `O=C(N[C@H](CC(=O)N1CCCCC1)C(=O)N[C@@H](CCCc1ccccc1)B(O)O)c1cnccn1` [Compound 11, ((R)-1-((R)-4-oxo-4-(piperidin-1-yl)-2-(pyrazine-2-carboxamido)butanamido)-4-phenylbutyl)boronic acid], the IC50 is under 50 nM.
In the case of `CC(=O)N[C@H](CC(=O)N1CCOCC1)C(=O)N[C@@H](CCCc1ccccc1)B(O)O` [Compound 19, ((R)-1-((R)-2-acetamido-4-morpholino-4-oxobutanamido)-4-phenylbutyl)boronic acid], the concentration for half-maximal inhibition (IC50) was under 50 nM.
Consider `O=C(N[C@@H](CCCc1ccccc1)B(O)O)[C@@H](CC(=O)N1CCOCC1)NC(=O)N1CCOCC1` [Compound 20, ((R)-1-((R)-2-(morpholine-4-carboxamido)-4-morpholino-4-oxobutanamido)-4-phenylbutyl)boronic acid], for which the IC50 is under 50 nM.
`CC(C)(C)OC(=O)N[C@H](CC(=O)N1CCOCC1)C(=O)N[C@@H](CCCc1ccccc1)B(O)O` [Compound 21, ((R)-1-((R)-2-((tert-butoxycarbonyl)amino)-4-morpholino-4-oxobutanamido)-4-phenylbutyl)boronic acid] displayed an IC50 of under 50 nM.
Then `CC(C)(C)NC(=O)N[C@H](CC(=O)N1CCOCC1)C(=O)N[C@@H](CCCc1ccccc1)B(O)O` [Compound 22, ((R)-1-((R)-2-(3-(tert-butyl)ureido)-4-morpholino-4-oxobutanamido)-4-phenylbutyl)boronic acid], with 50 to 500 nM; and `O=C(N[C@H](CCC(=O)N1CCOCC1)C(=O)N[C@@H](CCCc1ccccc1)B(O)O)c1cnccn1` [Compound 23, ((R)-1-((R)-5-morpholino-5-oxo-2-(pyrazine-2-carboxamido)pentanamido)-4-phenylbutyl)boronic acid], with under 50 nM.
The compound `CN(C)S(=O)(=O)C[C@@H](NC(=O)c1cnccn1)C(=O)N[C@@H](CCCc1ccccc1)B(O)O` [Compound 27, ((R)-1-((S)-3-(N,N-dimethylsulfamoyl)-2-(pyrazine-2-carboxamido)propanamido)-4-phenylbutyl)boronic acid] registered an IC50 of under 50 nM.
`O=C(N[C@H](COc1ccccn1)C(=O)N[C@@H](CCCc1ccccc1)B(O)O)c1cnccn1` [Compound 29, ((R)-4-phenyl-1-((R)-2-(pyrazine-2-carboxamido)-3-(pyridin-2-yloxy)propanamido)butyl)boronic acid]: the IC50 is under 50 nM.
The compound `CCC[C@H](NC(=O)[C@@H](CC(=O)N1CCOCC1)NC(=O)c1cnccn1)B(O)O` [Compound 31, ((R)-1-((R)-4-morpholino-4-oxo-2-(pyrazine-2-carboxamido)butanamido)butyl)boronic acid] registered a half-inhibitory concentration (IC50) of under 50 nM.
`CC[C@H](NC(=O)[C@@H](CC(=O)N1CCOCC1)NC(=O)c1cnccn1)B(O)O` [Compound 32, ((R)-1-((R)-4-morpholino-4-oxo-2-(pyrazine-2-carboxamido)butanamido)propyl)boronic acid] registered a half-maximal inhibitory concentration (IC50) of under 50 nM.
For the compound `CN(C)C(=O)N[C@H](CC(=O)N1CCOCC1)C(=O)N[C@@H](CCCc1ccccc1)B(O)O` [Compound 33, ((R)-1-((R)-2-(3,3-dimethylureido)-4-morpholino-4-oxobutanamido)-4-phenylbutyl)boronic acid], the IC50 is under 50 nM.
`CS(=O)(=O)CC[C@@H](NC(=O)c1cnccn1)C(=O)N[C@@H](CCCc1ccccc1)B(O)O` [Compound 35, ((R)-1-((R)-4-(methylsulfonyl)-2-(pyrazine-2-carboxamido)butanamido)-4-phenylbutyl)boronic acid] came in with an IC50 of under 50 nM.
Then `COC[C@@H](NC(=O)c1cnccn1)C(=O)N[C@@H](CCCc1ccccc1)B(O)O` [Compound 37, ((R)-1-((R)-3-methoxy-2-(pyrazine-2-carboxamido)propanamido)-4-phenylbutyl)boronic acid], with under 50 nM; and `COC[C@@H](NC(=O)c1cnccn1)C(=O)N[C@@H](COCc1ccccc1)B(O)O` [Compound 38, ((R)-2-(benzyloxy)-1-((R)-3-methoxy-2-(pyrazine-2-carboxamido)propanamido)ethyl)boronic acid], with under 50 nM; and `CCC[C@@H](NC(=O)c1cnccn1)C(=O)N[C@@H](COCc1ccccc1)B(O)O` [Compound 39, ((R)-2-(benzyloxy)-1-((R)-2-(pyrazine-2-carboxamido)pentanamido)ethyl)boronic acid], with under 50 nM.
`O=C(N[C@@H](CCCc1ccccc1)B(O)O)[C@@H](CC(=O)N1CCOCC1)NS(=O)(=O)c1ccccc1` [Compound 43, ((R)-1-((R)-4-morpholino-4-oxo-2-(phenylsulfonamido)butanamido)-4-phenylbutyl)boronic acid] registered an IC50 of under 50 nM.
`O=C(N[C@H](CC(=O)N1CCOCC1)C(=O)N[C@@H](CCCc1ccccc1)B(O)O)C1CCCCO1` (stereo partly drawn) [Compound 44, ((1R)-1-((2R)-4-morpholino-4-oxo-2-(tetrahydro-2H-pyran-2-carboxamido)butanamido)-4-phenylbutyl)boronic acid] yielded an IC50 of under 50 nM.
`COC[C@@H](NC(=O)c1ccccc1)C(=O)N[C@@H](CCCc1ccccc1)B(O)O` [Compound 48, ((R)-1-((R)-2-benzamido-3-methoxypropanamido)-4-phenylbutyl)boronic acid] showed a half-maximal inhibitory concentration (IC50) of under 50 nM.
Compound `COC[C@@H](NC(=O)c1cccc(OC)n1)C(=O)N[C@@H](CCCc1ccccc1)B(O)O` [Compound 50, ((R)-1-((R)-3-methoxy-2-(6-methoxypicolinamido)propanamido)-4-phenylbutyl)boronic acid] registered an IC50 of under 50 nM.
With `CCC[C@H](C(=O)N[C@@H](CCCc1ccccc1)B(O)O)N(C)C(=O)c1cnccn1` [Compound 51, ((R)-1-((R)-2-(N-methylpyrazine-2-carboxamido)pentanamido)-4-phenylbutyl)boronic acid], the 50% inhibitory concentration (IC50) is 50 to 500 nM.
Then `CCC[C@H](C(=O)N(C)[C@@H](CCCc1ccccc1)B(O)O)N(C)C(=O)c1cnccn1` [Compound 52, ((R)-1-((R)—N-methyl-2-(N-methylpyrazine-2-carboxamido)pentanamido)-4-phenylbutyl)boronic acid], with 50 to 500 nM.
